According to the OPERA property sets (Mansouri et al. 2018):

| SMILES | logP |
| --- | --- |
| O=[N+]([O-])c1ccc(-c2cnc(SCCc3c[nH]cn3)[nH]2)cc1 | 2.75 |
| O=[N+]([O-])c1cccc(-c2cnc(SCCc3c[nH]cn3)[nH]2)c1 | 2.43 |
| NC(=O)c1ccc(-c2cnc(SCCc3c[nH]cn3)[nH]2)cc1 | 1.4 |
| CCCc1cccc(-c2cnc(SCCc3c[nH]cn3)[nH]2)c1 | 3.7 |
| CCCc1ccc(-c2cnc(SCCc3c[nH]cn3)[nH]2)cc1 | 4.09 |
| Clc1ccc(-c2cnc(SCCc3c[nH]cn3)[nH]2)cc1 | 3.66 |
| c1ccc(-c2cnc(SCCc3c[nH]cn3)[nH]2)cc1 | 2.62 |
| O=S(=O)(Oc1ccc(-c2cnc(SCCc3c[nH]cn3)[nH]2)cc1)c1ccccc1 | 3.72 |
| CCCCOc1ccc(-c2cnc(SCCc3c[nH]cn3)[nH]2)cc1 | 4.11 |
| NC(=O)c1cccc(-c2cnc(SCCc3c[nH]cn3)[nH]2)c1 | 1.61 |
| Brc1cccc(-c2cnc(SCCc3c[nH]cn3)[nH]2)c1 | 3.76 |
